As a reminder, the EC50 is the concentration giving half of the maximal effect. The term CC50 denotes the concentration that lowers cell viability or growth by half. A low value points to harm at low concentration. What is called solubility (thermodynamic) is solubility found after equilibrating the solid with the medium.

One data set relates to HBV. The experiment in a line: Anti-HBV activity in vitro, HepG2.2.15 cells, extracellular HBV DNA by qPCR. The format is cell-based. Particulars: Hepatitis B virus, HepG2.2.15, 120 h, HepG2.2.15 cells; HBV replication inhibited by 50%, extracellular HBV DNA by qPCR; five days after compound treatment; read-out: EC50. Summed up:
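HBV-producing HepG2.2.15 cells were seeded and left overnight at 37 °C, then treated with half-log serial compound dilutions at a final 0.5% DMSO. After 5 days, viral DNA was extracted from the supernatant and extracellular HBV DNA was quantified by qPCR.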

A short description of data set [1]: Cytotoxicity in HepDE19 cells (CCK-8) and selectivity index. The data set is classed as cell-based. Particulars: human, HepDE19 cells; CCK-8 cell viability; five days after treatment. Summed up: (§1)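 HepDE19 cells (DMEM-F12, 10% FBS) were treated with compound for five days, then given CCK-8 for 2 h at 37 °C and read at OD450 and OD630. CC50 is the concentration killing 50% of host cells. Selectivity index is CC50/EC50.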

Another data set concerns HepDE19 cells. The description is as above. The format is cell-based. Particulars: CC50 (HepDE19) value / EC50 (HepG2.2.15) value. The essentials: as §1
Data set [2] can be described thus: Human microsomal metabolic stability. The data set is classed as in vitro ADME. Particulars: human microsomes 0.5 mg/mL, 1 μM test compound, NADPH, 37° C., pH 7.4, 0-30 minutes. The essentials:
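1 μM compound with 0.5 mg/mL human liver microsomal protein in 100 mM phosphate pH 7.4 at 37° C, started with 1 mM NADPH or a NADPH-regenerating system. Sampled at 0–30 min, quenched in cold methanol with tolbutamide internal standard; remaining parent quantified by LC-MS/MS.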

Another data set in a line: Lysa solubility. The data set is classed as physicochemical. Particulars: phosphate buffer, pH 6.5, aqueous buffer, thermodynamic from solid, 0.05 M phosphate buffer (pH 6.5). Summed up:
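Duplicate samples dried from 10 mM DMSO stocks, taken up in 0.05 M phosphate buffer pH 6.5, stirred 1 h, shaken 2 h and left overnight. Filtrate and 1/10 dilution quantified by direct UV or HPLC-UV, in μg/mL; above 80% of the calculated maximum, reported as greater than that value.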

Another data set has as its system CYP3A4. Put plainly: Cytochrome P450 induction screening assay, mRNA induction in human cryopreserved hepatocytes. The data set is classed as in vitro ADME. Particulars: CYP3A4 mRNA relative induction, 24 hours, test compound up to 10 μM. How it is done: Human cryopreserved hepatocytes (Life Technologies, Carlsbad, USA) were thawed and cultured in collagen I coated 96-well plates with a density of 52,000 cells/well. After attachment, medium was changed and cells were pre-cultured overnight in hepatocyte maintenance medium (HMM; Lonza, Switzerland).
Test compounds were dosed to the cells next morning at an indicated concentration (up to 10 μM) in HMM culture media containing gentamycin and a constant 0.1% DMSO. Similarly, dilutions of the positive inducer compounds omeprazole (prototypical inducer of human CYP1A2; final concentrations: 1 and 10 μM), phenobarbital (prototypical inducer of human CYP2B6; final concentrations: 100 and 1000 μM) and rifampicin (prototypical inducer of human CYP3A4; final concentrations: 1 and 10 μM) were prepared from 1000 fold DMSO stock solutions in HMM containing gentamycin. Medium change was then performed and cells were exposed for 24 hours to test compounds, positive inducer compounds, or vehicle (0.1% DMSO), respectively.
At the end of the compound exposure period, medium was removed and cells lysed using 100 μL/well MagNA Pure LC RNA isolation tissue lysis buffer (Roche Diagnostics AG, Rotkreuz, Switzerland). Plates were then sealed and frozen at −80° C. until further workup.
mRNA isolation was performed using the MagNA Pure 96 system (Roche Diagnostics AG, Rotkreuz, Switzerland) and the respective cellular RNA large volume kit (Roche Diagnostics AG, Rotkreuz, Switzerland) from thawed samples diluted 1:1 with PBS. The volume of the cell lysis and an elution volume of 100 μL were used. 20 μl of the resulting mRNA suspension was then used for reverse transcription using 20 μl of the transcript or first stand cDNA synthesis kit (Roche prime Supply, Mannheim, Germany). The resulting cDNA was diluted with 40 μl of H2O before using for qRT-PCR. qRT-PCR was performed by using the forward and the reverse primer, the corresponding UPL (all from Microsynth, Balgach, Switzerland) and the Taqman Fast advanced master mix (Applied Biosystems), on an ABI 7900 machine (Applied Biosystems).
qRT-PCR Ct-values for the respective P450s were put into relation to the Ct-value of RN18S1 (microsynth, Balgach, Switzerland) of the same sample. Doing so, a respective Δct-value was calculated. Using the average of all Δct-values for the vehicle control samples, a ΔΔct-value was calculated for each sample (ΔΔct-value(sample)=Δct-value(sample)−average of Δct-value of all vehicle controls). The fold induction of the respective sample was calculated as 2^(−ΔΔct). The individual fold induction values were then averaged per treatment condition (usually n=3 biological replicates).
Relative induction values to the respective positive inducer compound condition (10 μM omeprazole for CYP1A2; 1000 μM Phenobarbital for CYP2B6; 10 μM rifampicin for CYP3A4) were then calculated from the fold induction values as follows: Relative induction (%)=100×(T−V)/(P−V)

Each structure is given as a SMILES string. ≈ marks a conversion by molar mass, not a printed value. Where only a bound is given, the exact number is not on record here.

Turning to `COC(=O)C1=C(CN2CCN3C(=O)N(C(C)(C)C)C[C@@H]3[C@H]2C(=O)O)NC(c2nccs2)=N[C@H]1c1ccc(F)cc1Cl` (single isomer, unassigned) [Example 86B], the EC50 in the data set on HBV was found to be 4 nM. The compound further had a CC50 at 5 days in data set [1] above 100000 nM. In the data set on HepDE19 cells, the “Selectivity index (CC50/EC50)” value is above 25000. In addition, the “Human Microsomal Clearance” value in data set [2] turned out to be 4.7 mL/min/kg. The compound also registered a solubility (thermodynamic) in “Lysa solubility” above 740 µg/mL. Moreover, the “% of Positive control (10 μM Rifampicin)” value with CYP3A4 came to 11%.
In the case of `COC(=O)C1=C(CN2CCN3C(=O)N(C(C)(C)C)C[C@@H]3[C@H]2C(=O)O)NC(c2nccs2)=N[C@H]1c1ccc(F)c(F)c1C` (single isomer, unassigned) [Example 88B], in the data set with HBV, the EC50 came to 5 nM. Also, in data set [1], the CC50 at 5 days is above 100000 nM. In addition, the “Selectivity index (CC50/EC50)” value in the data set on HepDE19 cells is above 20000. In addition, the “Human Microsomal Clearance” value in data set [2] is 4.5 mL/min/kg. In addition, the thermodynamic solubility in the data set “Lysa solubility” is above 745 µg/mL. The “% of Positive control (10 μM Rifampicin)” value in the data set with CYP3A4 came to 3.7%.
With `CCOC(=O)C1=C(CN2CCN3C(=O)N(C)C[C@H]3[C@@H]2C(=O)O)NC(c2nccs2)=N[C@H]1c1cccc(F)c1Cl` (single isomer, unassigned) [Example 91B], the EC50 with HBV was 2 nM. For the same compound, the CC50 at 5 days in data set [1] is above 100000 nM. For the same compound, the “Selectivity index (CC50/EC50)” value in the data set with HepDE19 cells was above 50000. The “Human Microsomal Clearance” value in data set [2] was determined as 5.8 mL/min/kg. For the same compound, the thermodynamic solubility in “Lysa solubility” was above 705 µg/mL. Besides, the “% of Positive control (10 μM Rifampicin)” value in the data set on CYP3A4 is listed as 1.7%.
For the compound `CCOC(=O)C1=C(CN2CCN3C(=O)N(CC(C)(C)C(=O)O)C[C@@H]3C2)NC(c2nccs2)=N[C@H]1c1cccc(F)c1Cl` [Example 19, 3-[(8aS)-7-[[(4R)-4-(2-chloro-3-fluoro-phenyl)-5-ethoxycarbonyl-2-thiazol-2-yl-1,4-dihydropyrimidin-6-yl]methyl]-3-oxo-5,6,8,8a-tetrahydro-1H-imidazo[1,5-a]pyrazin-2-yl]-2,2-dimethyl-propanoic acid], in the data set with HBV, the EC50 was 3 nM. Further, the CC50 at 5 days in data set [1] was above 100000 nM. Moreover, the “Selectivity index (CC50/EC50)” value in the data set on HepDE19 cells is above 30303. The “Human Microsomal Clearance” value in data set [2] is listed as 0.4 mL/min/kg. Besides, the thermodynamic solubility in “Lysa solubility” was above 727 µg/mL. The “% of Positive control (10 μM Rifampicin)” value in the data set on CYP3A4 came to 1%.
Take `CCOC(=O)C1=C(CN2CCN3C(=O)N(CC(C)C(=O)O)C[C@@H]3C2)NC(c2nccs2)=N[C@H]1c1cccc(F)c1Cl` (stereo partly drawn) [Example 21, 3-[(8aS)-7-[[(4R)-4-(2-chloro-3-fluoro-phenyl)-5-ethoxycarbonyl-2-thiazol-2-yl-1,4-dihydropyrimidin-6-yl]methyl]-3-oxo-5,6,8,8a-tetrahydro-1H-imidazo[1,5-a]pyrazin-2-yl]-2-methyl-propanoic acid]: the EC50 in the data set on HBV came out at 16 nM. Also, the CC50 at 5 days in data set [1] is above 100000 nM. For the same compound, the “Selectivity index (CC50/EC50)” value in the data set with HepDE19 cells is given as above 6211. For the same compound, the “Human Microsomal Clearance” value in data set [2] was 2.7 mL/min/kg. Moreover, the thermodynamic solubility in “Lysa solubility” was above 786 µg/mL. The “% of Positive control (10 μM Rifampicin)” value in the data set with CYP3A4 was found to be 2.4%.
For the compound `CCOC(=O)C1=C(CN2CCN3C(=O)N(C(C)(C)CC(=O)O)C[C@@H]3C2)NC(c2nccs2)=N[C@H]1c1cccc(F)c1Cl` [Example 34, 3-[(8aS)-7-[[(4R)-4-(2-chloro-3-fluoro-phenyl)-5-ethoxycarbonyl-2-thiazol-2-yl-1,4-dihydropyrimidin-6-yl]methyl]-3-oxo-5,6,8,8a-tetrahydro-1H-imidazo[1,5-a]pyrazin-2-yl]-3-methyl-butanoic acid], the EC50 with HBV was 8 nM. The compound further gave a CC50 at 5 days in data set [1] of 81000 nM. Besides, the “Selectivity index (CC50/EC50)” value in the data set on HepDE19 cells was 10655. Also, the “Human Microsomal Clearance” value in data set [2] was found to be 1.8 mL/min/kg. Besides, in “Lysa solubility”, the thermodynamic solubility came out at 326 µg/mL (≈ 527 µM). Also, in the data set on CYP3A4, the “% of Positive control (10 μM Rifampicin)” value was 0.2%.
As for `CCOC(=O)C1=C(CN2CCN3C(=O)N(CC4(C(=O)O)CC4)C[C@@H]3C2)NC(c2nccs2)=N[C@H]1c1cccc(F)c1Cl` [Example 36, 1-[[(8aS)-7-[[(4R)-4-(2-chloro-3-fluoro-phenyl)-5-ethoxycarbonyl-2-thiazol-2-yl-1,4-dihydropyrimidin-6-yl]methyl]-3-oxo-5,6,8,8a-tetrahydro-1H-imidazo[1,5-a]pyrazin-2-yl]methyl]cyclopropanecarboxylic acid], in the data set with HBV, the EC50 was 6 nM. In data set [1], this compound displayed a 50% cytotoxic concentration (CC50) at 5 days above 100000 nM. Further, in the data set on HepDE19 cells, the “Selectivity index (CC50/EC50)” value is recorded as above 18181. Moreover, the “Human Microsomal Clearance” value in data set [2] turned out to be 4.4 mL/min/kg. The thermodynamic solubility in “Lysa solubility” was 485 µg/mL (≈ 786 µM). Further, the “% of Positive control (10 μM Rifampicin)” value in the data set on CYP3A4 came out at 6%.
`COC(=O)C1=C(CN2CCN3C(=O)N(CC4(C(=O)O)CC4)C[C@@H]3C2)NC(c2nccs2)=N[C@H]1c1ccc(F)c(F)c1C` [Example 38, 1-[[(8aS)-7-[[(4S)-4-(3,4-difluoro-2-methyl-phenyl)-5-methoxycarbonyl-2-thiazol-2-yl-1,4-dihydropyrimidin-6-yl]methyl]-3-oxo-5,6,8,8a-tetrahydro-1H-imidazo[1,5-a]pyrazin-2-yl]methyl]cyclopropanecarboxylic acid]: in the data set on HBV, the EC50 is 5 nM. The compound further yielded a CC50 at 5 days in data set [1] of 100000 nM. Also, in the data set with HepDE19 cells, the “Selectivity index (CC50/EC50)” value is 21276. The “Human Microsomal Clearance” value in data set [2] was 2.0 mL/min/kg. This compound also yielded a solubility (thermodynamic) in the data set “Lysa solubility” of 627 µg/mL (≈ 1040 µM). In the data set with CYP3A4, the “% of Positive control (10 μM Rifampicin)” value was found to be 0.2%.
For the compound `COC(=O)C1=C(CN2CCN3C(=O)N(CC(C)(C)C(=O)O)C[C@@H]3C2)NC(c2nccs2)=N[C@H]1c1ccc(F)cc1Cl` [Example 42, 3-[(8aS)-7-[[(4R)-4-(2-chloro-4-fluoro-phenyl)-5-methoxycarbonyl-2-thiazol-2-yl-1,4-dihydropyrimidin-6-yl]methyl]-3-oxo-5,6,8,8a-tetrahydro-1H-imidazo[1,5-a]pyrazin-2-yl]-2,2-dimethyl-propanoic acid], the EC50 in the data set on HBV is 6 nM. In addition, the CC50 at 5 days in data set [1] was above 100000 nM. The “Selectivity index (CC50/EC50)” value in the data set on HepDE19 cells is above 15625. Besides, the “Human Microsomal Clearance” value in data set [2] came out at 2.0 mL/min/kg. In “Lysa solubility”, this compound displayed a thermodynamic solubility above 785 µg/mL. Also, the “% of Positive control (10 μM Rifampicin)” value in the data set with CYP3A4 came to 0.6%.
Take `COC(=O)C1=C(CN2CCN3C(=O)N(CCC(C)(C)C(=O)O)C[C@@H]3C2)NC(c2nccs2)=N[C@H]1c1ccc(F)cc1Cl` [Example 54, 4-[(8aS)-7-[[(4R)-4-(2-chloro-4-fluoro-phenyl)-5-methoxycarbonyl-2-thiazol-2-yl-1,4-dihydropyrimidin-6-yl]methyl]-3-oxo-5,6,8,8a-tetrahydro-1H-imidazo[1,5-a]pyrazin-2-yl]-2,2-dimethyl-butanoic acid]: the EC50 with HBV is 8 nM. For the same compound, the CC50 at 5 days in data set [1] is above 100000 nM. Also, in the data set on HepDE19 cells, the “Selectivity index (CC50/EC50)” value was above 12500. In addition, the “Human Microsomal Clearance” value in data set [2] worked out at 4.6 mL/min/kg. In “Lysa solubility”, this compound had a solubility (thermodynamic) of 387 µg/mL (≈ 625 µM). The “% of Positive control (10 μM Rifampicin)” value in the data set with CYP3A4 was 0%.

The values are drawn from patent US9233978B2, “6-fused heteroaryldihydropyrimidines for the treatment and prophylaxis of hepatitis B virus infection” (Hoffmann-La Roche Inc., priority 2014, dated 2016).
